Results taken from patent US10189839B2, “Tricyclic imidazole compounds as inhibitors of tryptophan hydroxylase” (ACTELION PHARMACEUTICALS LTD, priority 2013, dated 2019).

Target: T1, full length human TPH1 (Homo sapiens, UniProt P17752)
T1 construct: To generate the enzyme, full length human TPH1 is cloned into the plasmid pET20b(+); made in house; host or cells: E. coli
T1 sequence (P17752 1-444): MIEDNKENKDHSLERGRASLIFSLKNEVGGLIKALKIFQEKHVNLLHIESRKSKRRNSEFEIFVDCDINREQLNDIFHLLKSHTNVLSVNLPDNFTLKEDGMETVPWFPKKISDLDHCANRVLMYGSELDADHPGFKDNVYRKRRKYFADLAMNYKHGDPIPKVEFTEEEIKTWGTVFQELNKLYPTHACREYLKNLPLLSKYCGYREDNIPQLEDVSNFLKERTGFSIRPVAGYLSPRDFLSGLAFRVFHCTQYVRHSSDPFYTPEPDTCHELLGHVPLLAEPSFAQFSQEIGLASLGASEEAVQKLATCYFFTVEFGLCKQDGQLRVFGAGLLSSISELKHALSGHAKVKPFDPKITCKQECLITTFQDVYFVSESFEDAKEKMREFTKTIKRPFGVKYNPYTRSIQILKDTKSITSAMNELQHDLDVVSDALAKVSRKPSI
Test: Biochemical in vitro assay using fluorescence readout (TPH1 enzyme activity)
Details: Table 1, mean where determined several times
In short: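 E. coli-expressed full-length human TPH1 (40-80 nM), affinity- and size-exclusion-purified, incubated 60 min at 15° C. in 0.1M Tris-HCl pH 7.6 with 1 mM DTT, 0.2 mg/ml catalase, 100 μM 6-methyltetrahydropterine and 40 μM L-tryptophan. 5-Hydroxy-L-tryptophan read by fluorescence (ex 300/em 540 nm) after HClO4 quench; IC50 versus vehicle, mean where repeated.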

| Structure (SMILES) | IC50 [nM] |
| --- | --- |
| COCCOc1ccc(C2c3c(nc4n3CCCC4)CCN2C(=O)COc2ccc(C(=O)NC3CC3)nc2Cl)c(F)c1 (centres unmarked) [Example 1.27.1, 6-chloro-N-cyclopropyl-5-(2-(1-(2-fluoro-4-(2-methoxyethoxy)phenyl)-3,4,6,7,8,9-hexahydroimidazo[1,2-a:5,4-c′]dipyridin-2(1H)-yl)-2-oxoethoxy)picolinamide] | 60 |
| CN1CCN(c2ccc(OCC(=O)N3CCc4nc5n(c4C3c3ccc(Cl)cc3F)CCS5)c(Cl)n2)S1(=O)=O (centres unmarked) [Example 4.1.5, 1-(5-(4-chloro-2-fluorophenyl)-2,3,7,8-tetrahydrothiazolo[2′,3′:2,3]imidazo[4,5-c]pyridin-6(5H)-yl)-2-((2-chloro-6-(5-methyl-1,1-dioxido-1,2,5-thiadiazolidin-2-yl)pyridin-3-yl)oxy)ethanone] | 12 |
| CS(=O)(=O)Nc1ccc(OCC(=O)N2CCc3nc4n(c3C2c2ccc(Cl)cc2F)CCS4)c(Cl)n1 (centres unmarked) [Example 4.1.1, N-(6-chloro-5-(2-(5-(4-chloro-2-fluorophenyl)-2,3,7,8-tetrahydrothiazolo[2′,3′:2,3]imidazo[4,5-c]pyridin-6(5H)-yl)-2-oxoethoxy)pyridin-2-yl)methanesulfonamide] | 19 |
| O=C(COc1cccnc1C(F)(F)F)N1CCc2nc3n(c2C1c1ccc(C2CC2)cc1F)CCNC3 (centres unmarked) [Example 5.2.10, 1-(1-(4-cyclopropyl-2-fluorophenyl)-3,4,6,7,8,9-hexahydropyrido[4′,3′:4,5]imidazo[1,2-a]pyrazin-2(1H)-yl)-2-((2-(trifluoromethyl)pyridin-3-yl)oxy)ethanone] | 50 |
| O=C(NC1CC1)c1ccc(OCC(=O)N2CCc3nc4n(c3[C@@H]2c2ccc(Cl)cc2F)CCCC4)c(Cl)n1 [Example 1.1.16, (S)-6-chloro-5-(2-(1-(4-chloro-2-fluorophenyl)-3,4,6,7,8,9-hexahydroimidazo[1,2-a:5,4-c′]dipyridin-2(1H)-yl)-2-oxoethoxy)-N-cyclopropylpicolinamide] | 12 |
| O=C(COc1ccc(-c2ncco2)nc1Cl)N1CCc2nc3n(c2C1c1ccc(C2CC2)cc1F)CCCC3 (centres unmarked) [Example 1.8.2, 2-((2-chloro-6-(oxazol-2-yl)pyridin-3-yl)oxy)-1-(1-(4-cyclopropyl-2-fluorophenyl)-3,4,6,7,8,9-hexahydroimi-dazo[1,2-a:5,4-c′]dipyridin-2(1H)-yl)ethanone] | 17 |
| O=C(COc1ccc(C2CC2)nc1Cl)N1CCc2nc3n(c2C1c1ccc(Cl)cc1F)CCCC3 (centres unmarked) [Example 1.1.14, 1-(1-(4-chloro-2-fluorophenyl)-3,4,6,7,8,9-hexahydroimidazo[1,2-a:5,4-c′]dipyridin-2(1H)-yl)-2-((2-chloro-6-cyclopropylpyridin-3-yl)oxy)ethanone] | 16 |
| CCc1nc(NS(C)(=O)=O)ccc1OCC(=O)N1CCc2nc3n(c2C1c1ccc(C)c(F)c1F)CCC3 (centres unmarked) [Example 2.3.1, N-(5-(2-(1-(2,3-difluoro-4-methylphenyl)-3,4,7,8-tetrahydro-1H-pyrrolo[2′,1′:2,3]imidazo[4,5-c]pyridin-2(6H)-yl)-2-oxoethoxy)-6-ethylpyridin-2-yl)methanesulfonamide] | 8 |
| CCc1nc(N2CCCS2(=O)=O)ccc1OCC(=O)N1CCc2nc3n(c2C1c1scnc1C)CCCC3 (centres unmarked) [Example 1.13.2, 2-((6-(1,1-dioxidoisothiazoli132din-2-yl)-2-ethylpyridin-3-yl)oxy)-1-(1-(4-methylthiazol-5-yl)-3,4,6,7,8,9-hexahydroimidazo[1,2-a:5,4-c′]dipyridin-2(1H)-yl)ethanone] | 15 |
| CCc1nc(C)c(C2c3c(nc4n3CCCC4)CCN2C(=O)COc2ccc(NS(C)(=O)=O)nc2Cl)s1 (centres unmarked) [Example 1.11.1, N-(6-chloro-5-(2-(1-(2-ethyl-4-methylthiazol-5-yl)-3,4,6,7,8,9-hexahydroimidazo[1,2-a:5,4-c′]dipyridin-2(1H)-yl)-2-oxoethoxy)pyridin-2-yl)methanesulfonamide] | 49 |
| CCc1nc(NS(C)(=O)=O)ccc1OCC(=O)N1CCc2nc3n(c2C1c1ccc(Cl)cc1F)CCCC3 (centres unmarked) [Example 1.1.11, N-(5-(2-(1-(4-chloro-2-fluorophenyl)-3,4,6,7,8,9-hexahydroimidazo[1,2-a:5,4-c′]dipyridin-2(1H)-yl)-2-oxoethoxy)-6-ethylpyridin-2-yl)methanesulfonamide] | 8 |
| CCc1nc(C)ccc1OCC(=O)N1CCc2nc3n(c2C1c1ccc(Cl)cc1F)CCCC3 (centres unmarked) [Example 1.1.15, 1-(1-(4-chloro-2-fluorophenyl)-3,4,6,7,8,9-hexahydroimidazo[1,2-a:5,4-c′]dipyridin-2(1H)-yl)-2-((2-ethyl-6-methylpyridin-3-yl)oxy)ethanone] | 39 |
| CCc1nc(NS(C)(=O)=O)ccc1OCC(=O)N1CCc2nc3n(c2C1c1ccc(Cl)cc1F)CCC3 (centres unmarked) [Example 2.1.2, N-(5-(2-(1-(4-chloro-2-fluorophenyl)-3,4,7,8-tetrahydro-1H-pyrrolo[2′,1′:2,3]imidazo[4,5-c]pyridin-2(6H)-yl)-2-oxoethoxy)-6-ethylpyridin-2-yl)methanesulfonamide] | 13 |
| Cc1ccc(C2c3c(nc4n3CCCC4)CCN2C(=O)COc2ccc(-c3ncco3)nc2Cl)c(F)c1F (centres unmarked) [Example 1.9.1, 2-((2-chloro-6-(oxazol-2-yl)pyridin-3-yl)oxy)-1-(1-(2,3-difluoro-4-methylphenyl)-3,4,6,7,8,9-hexahydroimida-zo[1,2-a:5,4-c′]dipyridin-2(1H)-yl)ethanone] | 20 |
| O=C(NC1CC1)c1ccc(OCC(=O)N2CCc3nc4n(c3C2c2ccc(C3CC3)cc2F)CCS4)c(Cl)n1 (centres unmarked) [Example 4.3.3, 6-chloro-N-cyclopropyl-5-(2-(5-(4-cyclopropyl-2-fluorophenyl)-2,3,7,8-tetrahydrothiazolo[2′,3′:2,3]imidazo[4,5-c]pyridin-6(5H)-yl)-2-oxoethoxy)picolinamide] | 14 |
| CC(=O)N1CCn2c(nc3c2C(c2sc(C)nc2C)N(C(=O)COc2ccc(-c4ncco4)nc2Cl)CC3)C1 (centres unmarked) [Example 5.17.1, 1-(7-acetyl-1-(2,4-dimethylthiazol-5-yl)-3,4,6,7,8,9-hexahydropyrido[4′,3′:4,5]imidazo[1,2-a]pyrazin-2(1H)-yl)-2-((2-chloro-6-(oxazol-2-yl)pyridin-3-yl)oxy)ethanone] | 27 |
| CC(=O)N1CCn2c(nc3c2C(c2ccc(C4CC4)cc2F)N(C(=O)COc2ccc(C(=O)N(C)C)nc2Cl)CC3)C1 (centres unmarked) [Example 5.2.13, 5-(2-(7-acetyl-1-(4-cyclopropyl-2-fluorophenyl)-3,4,6,7,8,9-hexahydropyrido[4′,3′:4,5]imidazo[1,2-a]pyrazin-2(1H)-yl)-2-oxoethoxy)-6-chloro-N,N-dimethylpicolinamide] | 4 |
| CCc1nc(NS(C)(=O)=O)ncc1OCC(=O)N1CCc2nc3n(c2C1c1ccc(C)c(F)c1F)CCCC3 (centres unmarked) [Example 1.9.9, N-(5-(2-(1-(2,3-difluoro-4-methylphenyl)-3,4,6,7,8,9-hexahydroimidazo[1,2-a:5,4-c′]dipyridin-2(1H)-yl)-2-oxoethoxy)-4-ethylpyrimidin-2-yl)methanesulfonamide] | 58 |
| CCc1nc(N2CCCS2(=O)=O)ccc1OCC(=O)N1CCc2nc3n(c2[C@@H]1c1sc(C)nc1C)CCC3 [Example 2.4.4, (R)-1-(1-(2,4-dimethylthiazol-5-yl)-3,4,7,8-tetrahydro-1H-pyrrolo[2′,1′:2,3]imidazo[4,5-c]pyridin-2(6H)-yl)-2-((6-(1,1-dioxidoisothiazolidin-2-yl)-2-ethylpyridin-3-yl)oxy)ethanone] | 7 |
| Cc1ccc(C2c3c(nc4n3CCCC4)CCN2C(=O)COc2ccc(N3CCN(C)CC3)nc2Cl)c(F)c1F (centres unmarked) [Example 1.9.4, 2-((2-chloro-6-(4-methylpiperazin-1-yl)pyridin-3-yl)oxy)-1-(1-(2,3-difluoro-4-methylphenyl)-3,4,6,7,8,9-hexahydroimidazo[1,2-a:5,4-c′]dipyridin-2(1H)-yl)ethanone] | 18 |
| CC(=O)N1CCn2c(nc3c2C(c2ccc(Cl)cn2)N(C(=O)COc2ccc(N4CCOCC4)nc2Cl)CC3)C1 (centres unmarked) [Example 5.15.1, 1-(7-acetyl-1-(5-chloropyridin-2-yl)-3,4,6,7,8,9-hexahydropyrido[4′,3′:4,5]imidazo[1,2-a]pyrazin-2(1H)-yl)-2-((2-chloro-6-morpholinopyridin-3-yl)oxy)ethanone] | 11 |
| CN(C)C(=O)c1ccc(OC(C)(C)C(=O)N2CCc3nc4n(c3C2c2ccc(Cl)cc2F)CCCC4)c(Cl)n1 (centres unmarked) [Example 1.1.25, 6-chloro-5-((1-(1-(4-chloro-2-fluorophenyl)-3,4,6,7,8,9-hexahydroimidazo[1,2-a:5,4-c′]dipyridin-2(1H)-yl)-2-methyl-1-oxopropan-2-yl)oxy)-N,N-dimethylpicolinamide] | 146 |

Same assay, conditions: Table 2

| Structure (SMILES) | IC50 [nM] |
| --- | --- |
| CN(C)C(=O)c1csc(C2c3c(nc4n3CCNC4)CCN2C(=O)COc2ccc(N3CCOCC3)nc2Cl)c1 (centres unmarked) [Example 5.3.1, 5-(2-(2-((2-Chloro-6-morpholinopyridin-3-yl)oxy)acetyl)-1,2,3,4,6,7,8,9-octahydropyrido[4′,3′:4,5]imidazo[1,2-a]pyrazin-1-yl)-N,N-dimethylthiophene-3-carboxamide] | 94 |
